Earlier results, collected in patent US7939522B1, “Dosage formulations for acetylcholinesterase inhibitors” (priority 1999, dated 2011).

Columns and labels:
[1] = reported (Thomsen, 1990)
sleep = conditions: humans, systemic administration late in the day or at night (Sitaram, 1979, Reimann, 1994)

Structure (SMILES) | half life [1] | effect on sleep (sleep)
COc1ccc2c3c1O[C@H]1C[C@@H](O)C=C[C@@]31CCN(C)C2 [galanthamine] | 4.5 to 8 h | 
CNC(=O)Oc1ccc2c(c1)[C@]1(C)CCN(C)[C@@H]1N2C [physostigmine] |  | disturb sleep and produce awakenings
